Several values for one entry are separate records, joined by “and”; a condition that tells them apart may be missing. Identical values can stand only once. Toxic doses and inconclusive results are not listed. No stated cut-off is given here; in the data, active means T/C of 150% or more; inactive means T/C below 125%.
Test system: L1210 leukemia ip in BDF1 mice, survival T/C
Experiment: NCI In Vivo Anticancer Drug Screen. Data for tumor model L1210 Leukemia (intraperitoneal) in B6D2F1 (BDF1) mice
Details: endpoint: mean survival time, higher = longer survival
Procedure, shortened: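 Read-out is survival time, reported as the treated-group measurement over the vehicle-control measurement.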

[1] = dose: 100.0 mg/kg/injection, schedule: Q01DX001 (ip), vehicle: saline with Tween-80
[2] = dose: 100.0 mg/kg/injection, schedule: Q04DX003 (ip), vehicle: saline
[3] = dose: 100.0 mg/kg/injection, schedule: Q01DX009 (ip), vehicle: saline with Tween-80
[4] = dose: 200.0 mg/kg/injection, schedule: Q01DX009 (ip), vehicle: saline with Tween-80
[5] = dose: 400.0 mg/kg/injection, schedule: Q01DX009 (ip), vehicle: saline with Tween-80
[6] = dose: 100.0 mg/kg/injection, schedule: Q01DX001 (ip), vehicle: saline
[7] = dose: 200.0 mg/kg/injection, schedule: Q01DX001 (ip), vehicle: saline
[8] = dose: 50.0 mg/kg/injection, schedule: Q01DX009 (ip), vehicle: Klucel (hydroxypropylcellulose) (HPC)
[9] = dose: 100.0 mg/kg/injection, schedule: Q04DX003 (ip), vehicle: Klucel (hydroxypropylcellulose) (HPC)
[10] = dose: 100.0 mg/kg/injection, schedule: Q01DX009 (ip), vehicle: Klucel (hydroxypropylcellulose) (HPC)
[11] = dose: 200.0 mg/kg/injection, schedule: Q01DX009 (ip), vehicle: Klucel (hydroxypropylcellulose) (HPC)
[12] = dose: 200.0 mg/kg/injection, schedule: Q04DX003 (ip), vehicle: Klucel (hydroxypropylcellulose) (HPC)
[13] = dose: 400.0 mg/kg/injection, schedule: Q01DX009 (ip), vehicle: Klucel (hydroxypropylcellulose) (HPC)
[14] = dose: 400.0 mg/kg/injection, schedule: Q04DX003 (ip), vehicle: Klucel (hydroxypropylcellulose) (HPC)
[15] = dose: 50.0 mg/kg/injection, schedule: Q01DX009 (ip), vehicle: saline with Tween-80

Measured: T/C

COc1ccc(NC(=S)Nc2ccccc2)cc1
inactive: dose: 100.0 mg/kg/injection, schedule: Q04DX002 (ip), vehicle: saline with Tween-80 101 % of control | dose: 200.0 mg/kg/injection, schedule: Q04DX002 (ip), vehicle: saline with Tween-80 108 % of control | dose: 400.0 mg/kg/injection, schedule: Q04DX002 (ip), vehicle: saline with Tween-80 108 % of control

O=C(NC(Cc1ccccc1)C(=O)CBr)OCc1ccccc1 (stereo unspecified)
inactive: [1] 103 % of control

OC1CSC2=[N+]1CCS2 (stereo unspecified)
inactive: dose: 75.0 mg/kg/injection, schedule: Q01DX001 (ip), vehicle: saline 98 % of control | dose: 150.0 mg/kg/injection, schedule: Q01DX001 (ip), vehicle: saline 112 % of control | dose: 300.0 mg/kg/injection, schedule: Q01DX001 (ip), vehicle: saline 111 % of control

O=C(O)CCC(NC(=O)c1ccccc1)C(=O)O (stereo unspecified)
inactive: [2] 100 % of control | dose: 200.0 mg/kg/injection, schedule: Q04DX003 (ip), vehicle: saline 95 % of control | dose: 400.0 mg/kg/injection, schedule: Q04DX003 (ip), vehicle: saline 95 % of control

O=C1CCN(CCN2CCC(=O)NC2=S)C(=S)N1
inactive: dose: 100.0 mg/kg/injection, schedule: Q04DX002 (ip), vehicle: gum acacia 94 % of control | dose: 200.0 mg/kg/injection, schedule: Q04DX002 (ip), vehicle: gum acacia 91 % of control | dose: 400.0 mg/kg/injection, schedule: Q04DX002 (ip), vehicle: gum acacia 97 % of control

COc1ccc(OC)c(NC(=O)OCCOc2ccccc2)c1
inactive: [3] 104 % of control | [4] 107 % of control | [5] 100 % of control

CCOC(=O)c1c(C)c(-c2ccccc2F)nc2ccccc12
inactive: [6] 103 % of control | [7] 94 % of control

CC1(C)N=C(N)N=C(N)N1c1ccc(Cl)cc1Cl
inactive: dose: 20.0 mg/kg/injection, schedule: Q04DX003 (ip), vehicle: Klucel (hydroxypropylcellulose) (HPC) 104 % of control | dose: 25.0 mg/kg/injection, schedule: Q01DX001 (ip), vehicle: saline with Tween-80 97 % of control | dose: 25.0 mg/kg/injection, schedule: Q01DX009 (ip), vehicle: Klucel (hydroxypropylcellulose) (HPC) 105 % of control | dose: 40.0 mg/kg/injection, schedule: Q04DX003 (ip), vehicle: Klucel (hydroxypropylcellulose) (HPC) 100 % of control | dose: 50.0 mg/kg/injection, schedule: Q01DX001 (ip), vehicle: saline with Tween-80 93 % of control | [8] 94 % of control | dose: 80.0 mg/kg/injection, schedule: Q04DX003 (ip), vehicle: Klucel (hydroxypropylcellulose) (HPC) 94 % of control | [1] 97 % of control | [6] 100 % of control | [9] 94 % of control

O=C(c1ccccc1)C1CSC1Br (stereo unspecified)
inactive: dose: 100.0 mg/kg/injection, schedule: Q04DX003 (ip), vehicle: saline with Tween-80 102 % of control | dose: 200.0 mg/kg/injection, schedule: Q04DX003 (ip), vehicle: saline with Tween-80 98 % of control | dose: 400.0 mg/kg/injection, schedule: Q04DX003 (ip), vehicle: saline with Tween-80 100 % of control

ClCCN(CCCl)c1ccc(C=Nc2ccc(/C=C\c3ccnc4ccccc34)cc2)cc1
inactive: dose: 100.0 mg/kg/injection, schedule: Q01DX001 (ip), vehicle: other 96 % of control | dose: 200.0 mg/kg/injection, schedule: Q01DX001 (ip), vehicle: other 94 % of control | dose: 400.0 mg/kg/injection, schedule: Q01DX001 (ip), vehicle: other 94 % of control

CCC[N+]12CC=C(CO)C1C(O)CC2 (stereo unspecified)
inactive: [6] 103 % of control | [7] 100 % of control | dose: 400.0 mg/kg/injection, schedule: Q01DX001 (ip), vehicle: saline 110 % of control

CSc1cc(C)c(O)c(C)c1
inactive: dose: 100.0 mg/kg/injection, schedule: Q01DX009 (ip), vehicle: other 98 % of control | dose: 200.0 mg/kg/injection, schedule: Q01DX009 (ip), vehicle: other 101 % of control

CCOC(CNC(=O)OCc1ccccc1)OCC
inactive: [8] 98 % of control | [10] 96 % of control and 106 % of control | [9] 96 % of control | dose: 150.0 mg/kg/injection, schedule: Q01DX009 (ip), vehicle: Klucel (hydroxypropylcellulose) (HPC) 102 % of control | [11] 98 % of control | [12] 105 % of control | [13] 101 % of control | [14] 97 % of control

N#CC(C#N)=Cc1c2ccccc2cc2ccccc12
inactive: [9] 94 % of control | [12] 91 % of control | [14] 112 % of control

CCCCCCCCCCCCOCN1C(=O)N(COCCCCCCCCCCCC)C(=O)C(CC)(c2ccccc2)C1=O
inactive: [3] 97 % of control | [4] 94 % of control | [5] 94 % of control

O=CC1=C(Cl)c2ccccc2CC1
inactive: dose: 12.5 mg/kg/injection, schedule: Q04DX003 (ip), vehicle: acetone 98 % of control

CCCCOc1ccc(C=Nc2ccc(CC)cc2)cc1
inactive: [3] 94 % of control | [4] 102 % of control | [5] 97 % of control

CC(O)C(c1ccccc1)c1ccccc1 (stereo unspecified)
inactive: [15] 94 % of control | [3] 102 % of control | [4] 97 % of control

S=C(Nc1ccccc1)Nc1ccc(Cl)c(Cl)c1
inactive: dose: 12.5 mg/kg/injection, schedule: Q01DX009 (ip), vehicle: saline with Tween-80 95 % of control | dose: 25.0 mg/kg/injection, schedule: Q01DX009 (ip), vehicle: saline with Tween-80 92 % of control and 90 % of control | [15] 105 % of control | [3] 87 % of control and 91 % of control

O=C(Nc1cccc(NC(=O)c2ccccc2)c1)c1ccccc1
inactive: [9] 92 % of control | [12] 95 % of control | [14] 90 % of control

[Cl][Pd][Cl].[NH-]CCN1CC1
inactive: dose: 25.0 mg/kg/injection, schedule: Q04DX002 (ip), vehicle: saline + alcohol 113 % of control | dose: 50.0 mg/kg/injection, schedule: Q04DX002 (ip), vehicle: saline + alcohol 102 % of control | dose: 100.0 mg/kg/injection, schedule: Q04DX002 (ip), vehicle: saline + alcohol 117 % of control | dose: 100.0 mg/kg/injection, schedule: Q04DX002 (ip), vehicle: saline 116 % of control

O=S(=O)(Nc1ccc(NS(=O)(=O)c2ccccc2)nc1)c1ccccc1
inactive: [10] 96 % of control | [9] 101 % of control | [11] 98 % of control | [12] 97 % of control | [13] 101 % of control | [14] 101 % of control

O=C1OCc2c1cc1n(c2=O)Cc2cc3ccccc3nc2-1
inactive: dose: 100.0 mg/kg/injection, schedule: Q01DX001 (ip), vehicle: Klucel (hydroxypropylcellulose) (HPC) 89 % of control | dose: 200.0 mg/kg/injection, schedule: Q01DX001 (ip), vehicle: Klucel (hydroxypropylcellulose) (HPC) 89 % of control | dose: 400.0 mg/kg/injection, schedule: Q01DX001 (ip), vehicle: Klucel (hydroxypropylcellulose) (HPC) 103 % of control

OCC1CC[N-]CC1.OCC1CC[N-]CC1.[Cl][Pt+2]([Cl])([Cl])[Cl]
inactive: dose: 12.5 mg/kg/injection, schedule: Q01DX009 (ip), vehicle: saline 105 % of control | dose: 25.0 mg/kg/injection, schedule: Q01DX009 (ip), vehicle: saline 94 % of control | dose: 25.0 mg/kg/injection, schedule: Q04DX003 (ip), vehicle: saline 94 % of control | dose: 50.0 mg/kg/injection, schedule: Q01DX009 (ip), vehicle: saline 103 % of control | dose: 50.0 mg/kg/injection, schedule: Q04DX003 (ip), vehicle: saline 107 % of control | [2] 104 % of control

Source: PubChem BioAssay AID248 (DTP/NCI, 2004)
